Results taken from US4414388A, “1-Oxo-1H-thiazolo[3,2-a]pyrimidine-2-carboxamides” (Pfizer Inc., priority 1981, dated 1983).
Entries after “also recorded” stand apart in the source; their conditions may differ. Where a name gives a salt, the structure may show the parent alone.

Legend:
allergy and ulcer = test: antiallergy and antiulcer activity, general statement; conditions: in vivo
Description: (§1) The antiallergy property of the compounds of this invention is evaluated by the passive cutaneous anaphylaxis (PCA) test (Ovary, J. Immun., 81, 355, 1958). In the PCA test, normal animals are injected intradermally (i.d.) with antibodies contained in serum obtained from actively sensitized animals. The animals are then challenged intravenously with antigen mixed with a dye such as Evans' Blue. The increased capillary permeability caused by the antigen-antibody reaction causes the dye to leak from the site of the antibody injection. The test animals are then asphyxiated and the intensity of the reaction determined by measuring the diameter and intensity of the blue coloration on the inner surface of the animals' skin.
The antiulcer activity of the compounds of the present invention is evaluated by the so-called cold-restraint stressed rat assay. Alternatively, the antiulcer activity is determined in a newly established ethanol-induced rat ulcer assay described below.

[1] = plasma concentration / oral absorption in dogs; format: in vivo, dog; conditions: dog; oral dosing of III
Description: (§2) This is supported by the observations of plasma concentrations of 3 to 7 μg/ml one hour after oral administration of III, 50 to 300 mg/kg.

[2] = plasma concentration / oral absorption in rats; format: in vivo, rat; conditions: rat; oral dosing of III
Description: as §2

IgG = test: passive cutaneous anaphylaxis (PCA) test, oral, IgG (hyperimmune antiserum) site; format: in vivo, rat; conditions: Table I; for inhibition in vivo at 30 mg/kg: Rattus norvegicus, read-out: Oral Activity (% of Protection) of Amides in the PCA Test, IgG 30 mg./kg.
Description: as §1
(§3) The PCA test is a measure of the anti-allergic (especially anti-asthmatic) activity of a compound. Compounds which inhibit a positive PCA test induced by the rat immunochemical counterpart of human immunoglobulin E (IgE), or reagin, are considered to have anti-allergic activity (C. Mota, Ann. N.Y. Acad. Sci., 103, 264 1963). (Reagin is primarily immunoglobulin E [IgE] and is the principal immunoglobulin responsible for allergic asthma, anaphylaxis, hay fever, food sensitivities and certain manifestations of drug sensitivities, although recent evidence ascribes to the IgG class of antibodies a significant role in the mediation of allergic diseases). Such compounds when administered to a sensitized subject, human or animal, prior to the time when the subject comes into contact with antigens or substances to which it is allergic, will prevent the allergic reaction which would otherwise occur. They, therefore, provide a method for the prophylactic treatment of allergy or anaphylactic reactions of a reagin mediated nature.
(§4) To put it another way, such compounds block the release of mediators resulting from the antigen-antibody (allergic) reaction as illustrated in the PCA test using rat homocytotropic antibody--a known correlate of human reaginic antibody. Inhibition of reaginic antigen-antibody reactions in rats, the test animal of the PCA test, is regarded as representative of inhibition of human reaginic antigen-antibody reactions which occur during allergic episodes.
(§5) The ability of agents to interfere with PCA reactions is measured in male Charles River Wistar rats, 170-210 g. Reaginic antiserum, rich in IgE antibodies, is prepared according to Petillo et al., Int. Arch. Allergy, 44, 309 (1973). Hyperimmune antiserum rich in IgG antibodies to hen egg albumin is prepared according to Orange et al., J. Exptl. Med., 127, 767 (1968). Forty-eight hours prior to antigen challenge, the reaginic antiserum is injected intradermally (i.d.) into the shaved skin of a normal rat's back; 5 hours before challenge the hyperimmune antisera is similarly injected. At a third site 60 mcg. histamine dihydrochloride and 0.5 mcg. serotonin creatinine sulfate are injected i.d. just prior to antigen challenge as a check for antihistaminic, antiserotonin and unspecific types of blockage; the compounds of the instant invention or saline are then administered i.v. and immediately followed by the challenge of 5 mg. egg albumen and 2.5 mg. Evans' Blue dye in saline. In the case of oral administration Evans' Blue dye and egg albumin are given 5 minutes after administration of the drug. Thirty minutes later the animals are asphyxiated using chloroform and the skin of the back removed and reversed for observation. A score is assigned each injection site equal to the product of the diameter of the site in mm. and a grade of 0.1, 0.5, 1, 2, 3 or 4 proportional to intensity of dye coloration. The scores for a given injection site are summed for each group of five animals and compared to the saline treated controls. The difference is expressed as percent blockage due to the compound employed. […]

IgE = test: passive cutaneous anaphylaxis (PCA) test, oral, IgE (reaginic antiserum) site; format: in vivo, rat; conditions: Table I; for inhibition in vivo at 30 mg/kg: Rattus norvegicus, read-out: Oral Activity (% of Protection) of Amides in the PCA Test, IgE 30 mg./kg.
Description: as §1, §3, §4, §5

mediators of anaphylaxis = conditions: cited from earlier work
[3] = test system: dextran induced release of histamine; test: dextran induced release of histamine into the rat peritoneal cavity; format: in vivo; conditions: ip
Text: Compound III inhibits dextran induced release of histamine into the rat peritoneal cavity.

gastric ulcers = conditions: animals, including humans; cited from earlier work
[4] = water solubility and hygroscopicity of the sodium salt; format: physicochemical; conditions: sodium salt (trihydrate)

SMILES: O=C(O)c1cnc2sc3c(n2c1=O)CCCC3 [Acid II, R1R2 = (CH2)4, 1-oxo-1H-cyclohexenothiazolo[3,2-a]pyrimidine-2-carboxylic acid]
- activity of metabolite, in words (allergy and ulcer): good activity
- plasma levels of the carboxylic acid metabolite compared with III, dog [1]: comparable to those of III
- plasma levels of the carboxylic acid metabolite compared with III, rat [2]: comparable to those of III

SMILES: CCc1sc2ncc(C(=O)Nc3nnn[nH]3)c(=O)n2c1CC [Amide I, R1 = C2 H5, R2 = C2 H5, N-(5-tetrazolyl)-1-oxo-1H-6,7-diethylthiazolo[3,2-a]pyrimidine-2-carboxamide]
- Oral Activity (% of Protection) of Amides in the PCA Test, IgG 10 mg./kg. (IgG): 49%
- Oral Activity (% of Protection) of Amides in the PCA Test, IgE 10 mg./kg. (IgE): 62%

SMILES: CCc1c(C)sc2ncc(C(=O)Nc3nnn[nH]3)c(=O)n12 [Amide I, R1 = CH3, R2 = C2 H5, N-(5-tetrazolyl)-1-oxo-1H-6-methyl-7-ethylthiazolo[3,2-a]pyrimidine-2-carboxamide]
- Oral Activity (% of Protection) of Amides in the PCA Test, IgG 10 mg./kg. (IgG): 57%
- Oral Activity (% of Protection) of Amides in the PCA Test, IgE 10 mg./kg. (IgE): 75%

SMILES: CCc1csc2ncc(C(=O)Nc3nnn[nH]3)c(=O)n12 [Amide I, R1 = H, R2 = C2 H5, N-(5-tetrazolyl)-1-oxo-1H-7-ethylthiazolo[3,2-a]pyrimidine-2-carboxamide]
- Oral Activity (% of Protection) of Amides in the PCA Test, IgG 10 mg./kg. (IgG): 44%
- Oral Activity (% of Protection) of Amides in the PCA Test, IgE 10 mg./kg. (IgE): 70%

SMILES: CC(C)(C)c1csc2ncc(C(=O)Nc3nnn[nH]3)c(=O)n12 [Amide I, R1 = H, R2 = C(CH3)3, N-(5-tetrazolyl)-1-oxo-1H-7-(2-methyl-2-propyl)thiazolo[3,2-a]pyrimidine-2-carboxamide]
- Oral Activity (% of Protection) of Amides in the PCA Test, IgG 10 mg./kg. (IgG): 20%
- Oral Activity (% of Protection) of Amides in the PCA Test, IgE 10 mg./kg. (IgE): 37%

SMILES: CC(C)c1csc2ncc(C(=O)Nc3nnn[nH]3)c(=O)n12 [Amide I, R1 = H, R2 = CH(CH3)2, N-(5-tetrazolyl)-1-oxo-1H-7-isopropylthiazolo[3,2-a]pyrimidine-2-carboxamide]
- Oral Activity (% of Protection) of Amides in the PCA Test, IgG 10 mg./kg. (IgG): 53%
- Oral Activity (% of Protection) of Amides in the PCA Test, IgE 10 mg./kg. (IgE): 72%

SMILES: O=C(Nc1nnn[nH]1)c1cnc2sc3c(n2c1=O)CCC3 [Amide I, R1R2 = (CH2)3, N-(5-tetrazolyl)-1-oxo-1H-cyclopentenothiazolo[3,2-a]pyrimidine-2-carboxamide]
- Oral Activity (% of Protection) of Amides in the PCA Test, IgG 3 mg./kg. (IgG; 3 mg./kg.): 43%
- Oral Activity (% of Protection) of Amides in the PCA Test, IgE 3 mg./kg. (IgE; 3 mg./kg.): 46%

SMILES: O=C(Nc1nnn[nH]1)c1cnc2sc3c(n2c1=O)CCCCC3 [Amide I, R1R2 = (CH2)5, N-(5-tetrazolyl)-1-oxo-1H-cycloheptenothiazolo[3,2-a]pyrimidine-2-carboxamide]
- Oral Activity (% of Protection) of Amides in the PCA Test, IgG 10 mg./kg. (IgG): 38%
- Oral Activity (% of Protection) of Amides in the PCA Test, IgE 10 mg./kg. (IgE): 25%

SMILES: O=C(Nc1nnn[nH]1)c1cnc2sc3c(n2c1=O)CCCCCC3 [Amide I, R1R2 = (CH2)6, N-(5-Tetrazolyl)-1-oxo-1H-cyclooctenothiazolo[3,2-a]pyrimidine-2-carboxamide]
- Oral Activity (% of Protection) of Amides in the PCA Test, IgG 10 mg./kg. (IgG): 57%
- Oral Activity (% of Protection) of Amides in the PCA Test, IgE 10 mg./kg. (IgE): 94%

SMILES: CC1(C)CCc2c(sc3ncc(C(=O)Nc4nnn[nH]4)c(=O)n23)C1 [Amide I, R1R2 = CH2 C(CH3)2 CH2 CH2, N-(5-Tetrazolyl)-1-oxo-1H-7,7-dimethylcyclohexenothiazolo[3,2-a]pyrimidine-2-carboxamide]
- inhibition in vivo at 30 mg/kg (IgG): 27%
- inhibition in vivo at 30 mg/kg (IgE): 38%

SMILES: O=C(Nc1nnn[nH]1)c1cnc2sc3c(n2c1=O)CCC(c1ccccc1)C3 (centres unmarked) [Amide I, R1R2 = CH2 CH(C5 H6)CH2 CH2, N-(5-tetrazolyl)-1-oxo-1H-7-phenylcyclohexenothiazolo[3,2-a]pyrimidine-2-carboxamide]
- inhibition in vivo at 30 mg/kg (IgG): 7%
- inhibition in vivo at 30 mg/kg (IgE): 4%

SMILES: CC1CCc2c(sc3ncc(C(=O)Nc4nnn[nH]4)c(=O)n23)C1 (centres unmarked) [Amide I, R1R2 = CH2 CH(CH3)CH2 CH2, N-(5-tetrazolyl)-1-oxo-1H-7-methylcyclohexenothiazolo[3,2-a]pyrimidine-2-carboxamide]
- inhibition in vivo at 30 mg/kg (IgG): 33%
- inhibition in vivo at 30 mg/kg (IgE): 44%

SMILES: O=C(O)c1cc(=O)c2c(OCC(O)COc3cccc4oc(C(=O)O)cc(=O)c34)cccc2o1 [Intal, 1,3-bis(2-carboxycromon-5-yloxy)-2-hydroxy-propane]
- bronchodilator activity (mediators of anaphylaxis; in vivo): not a bronchodilator
- release of mediators of anaphylaxis (mediators of anaphylaxis; in vivo): inhibition of release of mediators of anaphylaxis
- oral activity/efficacy of Intal (mediators of anaphylaxis; oral route): lacks efficacy by the oral route; also recorded: not active by the oral route; also recorded: lack of oral efficacy
- ED50 [3]: 0.014 mg/kg

SMILES: CCC(C)c1csc2ncc(C(=O)Nc3nnn[nH]3)c(=O)n12 (centres unmarked) [N-(5-Tetrazolyl)-1-oxo-1H-7-(2-butyl)thiazolo[3,2-a]pyrimidine-2-carboxamide]
- inhibition in vivo at 30 mg/kg (IgG): 6%
- inhibition in vivo at 30 mg/kg (IgE): 6%

SMILES: CC1(C)[C@@H](OC(=O)CCC(=O)O)CC[C@]2(C)[C@H]3C(=O)C=C4[C@@H]5C[C@@](C)(C(=O)O)CC[C@]5(C)CC[C@@]4(C)[C@]3(C)CC[C@@H]12 [carbenoxolone sodium, disodium salt of the hemisuccinate of glycyrrhetinic acid]
- effect on gastric ulcers (gastric ulcers): prevent formation of and to accelerate healing of gastric ulcers

SMILES: CN/C(=N/CCSCc1nc[nH]c1C)NC#N [cimetidine]
- effect on gastric ulcers (gastric ulcers): alleviates ulcers by reducing gastric acid secretion

SMILES: O=C(Nc1nnn[nH]1)c1cnc2sc3c(n2c1=O)CCCC3 [sodium salt (trihydrate), sodium N-(5-tetrazolyl)-1-oxo-1H-cyclohexenothiazolo[3,2-a]pyrimidine-2-carboxamide trihydrate]
- hygroscopicity [4]: non-hygroscopic
- water solubility [4]: good water solubility
